Test results reported in the supplement of paper PMC11451515.

Assays:
Settings in all cases: 48 h
P12-Ichikawa = assay: AUC of viability dose-response curve (% viability x log10 dose units); higher = less sensitive
Outline: (§1)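 Leukemia cells adapted to each medium were seeded at 500 or 1000 cells/well in 1536-well plates and dosed with library compounds in DMSO at 11 threefold doses from 47 μM to 0.79 nM for 48 h at 37°C. CellTiter-Glo One luminescence was normalised per plate to DMSO and cell-free wells, then fitted with a four-parameter log-logistic model over log10 doses. Area under the curve was taken from this fit by the trapezoidal rule, with curves above full viability scaled and curves failing quality control removed.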

SEM cells [1] = assay: as above
Outline: as §1

NOMO1 = assay: as above
Outline: as §1

SEM cells [2] = assay: cell viability relative to DMSO control; higher = less cytotoxic
Outline: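 NOMO1, SEM and P12-Ichikawa leukemia cells spent at least four passages adapting to each medium before use. They were seeded at 500 cells/well (NOMO1, SEM) or 1000 cells/well (P12-Ichikawa) in 5 μl in 1536-well plates and pin-dosed with library compounds in DMSO at 11 threefold steps from 47 μM down to 0.79 nM. After 48 h at 37°C, CellTiter-Glo One luminescence was read. Viability is reported as a percentage of the DMSO wells on each plate, with cell-free wells as background.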

[3] = RPMI 5 mM glucose + 10% dialyzed FBS
[4] = HPLM + 10% dialyzed FBS, 0.000781 µM
[5] = HPLM + 10% dialyzed FBS, 0.00234 µM
[6] = HPLM + 10% dialyzed FBS, 0.00702 µM
[7] = HPLM + 10% dialyzed FBS, 0.0211 µM
[8] = HPLM + 10% dialyzed FBS, 0.0632 µM
[9] = HPLM + 10% dialyzed FBS, 0.19 µM
[10] = HPLM + 10% dialyzed FBS, 0.569 µM
[11] = HPLM + 10% dialyzed FBS, 1.71 µM
[12] = HPLM + 10% dialyzed FBS, 5.12 µM
[13] = HPLM + 10% dialyzed FBS, 15.4 µM
[14] = HPLM + 10% dialyzed FBS, 46.1 µM
[15] = RPMI 5 mM glucose + 10% FBS, 0.000781 µM
[16] = RPMI 5 mM glucose + 10% FBS, 0.00234 µM
[17] = RPMI 5 mM glucose + 10% FBS, 0.00702 µM
[18] = RPMI 5 mM glucose + 10% FBS, 0.0211 µM
[19] = RPMI 5 mM glucose + 10% FBS, 0.0632 µM
[20] = RPMI 5 mM glucose + 10% FBS, 0.19 µM
[21] = RPMI 5 mM glucose + 10% FBS, 0.569 µM
[22] = RPMI 5 mM glucose + 10% FBS, 1.71 µM
[23] = RPMI 5 mM glucose + 10% FBS, 5.12 µM
[24] = RPMI 5 mM glucose + 10% FBS, 15.4 µM
[25] = RPMI 5 mM glucose + 10% FBS, 46.1 µM

| Structure (SMILES) | AUC of viability dose-response curve (P12-Ichikawa; HPLM + 10% dialyzed FBS) | AUC of viability dose-response curve (P12-Ichikawa; RPMI 5 mM glucose + 10% FBS) | AUC of viability dose-response curve (P12-Ichikawa; [3]) | AUC of viability dose-response curve (SEM cells [1]; HPLM + 10% dialyzed FBS) | AUC of viability dose-response curve (SEM cells [1]; RPMI 5 mM glucose + 10% FBS) | AUC of viability dose-response curve (SEM cells [1]; [3]) | AUC of viability dose-response curve (NOMO1; HPLM + 10% dialyzed FBS) | AUC of viability dose-response curve (NOMO1; RPMI 5 mM glucose + 10% FBS) | AUC of viability dose-response curve (NOMO1; [3]) | cell viability (SEM cells [2]; [4]) | cell viability (SEM cells [2]; [5]) | cell viability (SEM cells [2]; [6]) | cell viability (SEM cells [2]; [7]) | cell viability (SEM cells [2]; [8]) | cell viability (SEM cells [2]; [9]) | cell viability (SEM cells [2]; [10]) | cell viability (SEM cells [2]; [11]) | cell viability (SEM cells [2]; [12]) | cell viability (SEM cells [2]; [13]) | cell viability (SEM cells [2]; [14]) | cell viability (SEM cells [2]; [15]) | cell viability (SEM cells [2]; [16]) | cell viability (SEM cells [2]; [17]) | cell viability (SEM cells [2]; [18]) | cell viability (SEM cells [2]; [19]) | cell viability (SEM cells [2]; [20]) | cell viability (SEM cells [2]; [21]) | cell viability (SEM cells [2]; [22]) | cell viability (SEM cells [2]; [23]) | cell viability (SEM cells [2]; [24]) | cell viability (SEM cells [2]; [25]) |
| --- | --- | --- | --- | --- | --- | --- | --- | --- | --- | --- | --- | --- | --- | --- | --- | --- | --- | --- | --- | --- | --- | --- | --- | --- | --- | --- | --- | --- | --- | --- | --- |
| O=c1cc(-c2ccc(O)c(O)c2)oc2cc(O)cc(O)c12 | 473 | 464 | 467 | 449 | 454 | 459 | 458 | 461 | 461 | 107% | 113% | 126% | 127% | 134% | 134% | 142% | 152% | 156% | 129% | 129% |  |  |  |  |  |  |  |  |  |  |  |
| CCCCC(C)(C)[C@H](O)/C=C/[C@H]1[C@H](O)CC(=O)[C@@H]1C/C=C\CCCC(=O)O | 447 | 437 | 442 | 401 | 407 | 403 | 437 | 453 | 431 |  |  |  |  |  |  |  |  |  |  |  | 101% | 123% | 131% | 120% | 119% | 137% | 117% | 130% | 51.5% | 78.2% | 13.4% |
| Cc1cc(Nc2cc(N3CCN(C)CC3)nc(Sc3ccc(NC(=O)C4CC4)cc3)n2)[nH]n1 | 298 | 302 | 315 | 304 | 286 | 286 | 389 | 390 | 376 |  |  |  |  |  |  |  |  |  |  |  |  |  |  |  |  |  |  |  |  |  |  |
| Cc1ccc2c(=O)c3cccc(CC(=O)O)c3oc2c1C | 471 | 464 | 460 | 447 | 440 | 449 | 435 | 471 | 429 |  |  |  |  |  |  |  |  |  |  |  |  |  |  |  |  |  |  |  |  |  |  |
| Cc1cnc(Nc2ccc(F)cc2Cl)nc1-c1c[nH]c(C(=O)N[C@H](CO)c2cccc(Cl)c2)c1 | 389 | 384 | 411 | 467 | 452 | 443 | 353 | 335 | 364 | 109% | 125% | 114% | 137% | 126% | 134% | 134% | 125% | 136% | 121% | 84.9% |  |  |  |  |  |  |  |  |  |  |  |
| COC1=CC=C2[C@H]3CC[C@]4(C)[C@H](CC[C@H]4[C@@H]3CCC2=C1)NCCCCCCN5C(=O)\C=C/C5=O | 456 | 448 | 444 | 472 | 459 | 408 | 434 | 444 | 462 |  |  |  |  |  |  |  |  |  |  |  |  |  |  |  |  |  |  |  |  |  |  |
| c1nc2c(NC3CCCCC3)nc(Nc3ccc(N4CCOCC4)cc3)nc2[nH]1 | 377 | 364 | 384 | 386 | 364 | 363 | 403 | 399 | 405 | 121% | 118% | 114% | 120% | 131% | 116% | 120% | 112% | 36.8% | 28.4% | 29.3% | 110% | 113% | 132% | 121% | 120% | 131% | 111% | 95.9% | 20.5% | 13.7% | 14.4% |
| O=C(N[C@H](CO)[C@H](O)c1ccc([N+](=O)[O-])cc1)C(Cl)Cl | 471 | 466 | 462 | 474 | 475 | 475 | 477 | 467 | 467 | 115% | 119% | 125% | 121% | 126% | 125% | 128% | 132% | 128% | 118% | 113% |  |  |  |  |  |  |  |  |  |  |  |
| Nc1ncnc2c1c(-c1cccc(OCc3ccccc3)c1)cn2[C@H]1C[C@@H](CN2CCC2)C1 | 458 | 465 | 467 | 437 | 456 | 436 | 433 | 459 | 450 | 103% | 125% | 119% | 123% | 117% | 126% | 109% | 114% | 96.4% | 75.3% | 62.9% | 110% | 115% | 121% | 107% | 112% | 107% | 123% | 117% | 111% | 91.3% | 64.4% |
